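Growth conditions: 96-well plates. Treatment: test compound, 48 hours, 5 concentrations. Analysis: linear interpolation between bracketing concentrations; unreached endpoints set to highest concentration. The concentration for 50% growth inhibition is given as GI50. TGI denotes the concentration required for complete inhibition of growth.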
Legend:
Test in all cases: NCI-60 cell line screen, 48 h
786-0 renal = system: 786-0 renal
A498 renal = system: A498 renal
A549 NSCLC = system: A549 NSCLC
ACHN renal = system: ACHN renal
BT-549 breast = system: BT-549 breast
CAKI-1 renal = system: CAKI-1 renal
CCRF-CEM leukemia = system: CCRF-CEM leukemia
COLO 205 colon = system: COLO 205 colon
DU-145 prostate = system: DU-145 prostate
EKVX NSCLC = system: EKVX NSCLC
HCC-2998 colon = system: HCC-2998 colon
HCT-116 colon = system: HCT-116 colon
HCT-15 colon = system: HCT-15 colon
HL-60(TB) leukemia = system: HL-60(TB) leukemia
HOP-62 NSCLC = system: HOP-62 NSCLC
HOP-92 NSCLC = system: HOP-92 NSCLC
HS 578T breast = system: HS 578T breast
HT29 colon = system: HT29 colon
IGROV1 ovarian = system: IGROV1 ovarian
K-562 leukemia = system: K-562 leukemia
KM12 colon = system: KM12 colon
LOX IMVI melanoma = system: LOX IMVI melanoma
M14 melanoma = system: M14 melanoma
MALME-3M melanoma = system: MALME-3M melanoma
MCF7 breast = system: MCF7 breast
MDA-MB-231 breast = system: MDA-MB-231 breast
MDA-MB-435 = system: MDA-MB-435
MDA-MB-468 breast = system: MDA-MB-468 breast
MOLT-4 leukemia = system: MOLT-4 leukemia
NCI-H226 lung = system: NCI-H226 lung
NCI-H23 lung = system: NCI-H23 lung
NCI-H460 lung = system: NCI-H460 lung
NCI-H522 lung = system: NCI-H522 lung
NCI/ADR-RES ovarian = system: NCI/ADR-RES ovarian
OVCAR-3 ovarian = system: OVCAR-3 ovarian
OVCAR-4 ovarian = system: OVCAR-4 ovarian
OVCAR-5 ovarian = system: OVCAR-5 ovarian
OVCAR-8 ovarian = system: OVCAR-8 ovarian
PC-3 prostate = system: PC-3 prostate
RPMI-8226 leukemia = system: RPMI-8226 leukemia
RXF 393 renal = system: RXF 393 renal
SF-268 CNS = system: SF-268 CNS
SF-295 CNS = system: SF-295 CNS
SF-539 CNS = system: SF-539 CNS
SK-MEL-2 melanoma = system: SK-MEL-2 melanoma
SK-MEL-28 melanoma = system: SK-MEL-28 melanoma
SK-MEL-5 melanoma = system: SK-MEL-5 melanoma
SK-OV-3 ovarian = system: SK-OV-3 ovarian
SN12C renal = system: SN12C renal
SNB-19 CNS = system: SNB-19 CNS
SNB-75 CNS = system: SNB-75 CNS
SR leukemia = system: SR leukemia
SW-620 colon = system: SW-620 colon
T-47D breast = system: T-47D breast
TK-10 renal = system: TK-10 renal
U251 CNS = system: U251 CNS
UACC-257 melanoma = system: UACC-257 melanoma
UACC-62 melanoma = system: UACC-62 melanoma
UO-31 renal = system: UO-31 renal

O=C(N/N=C/c1ccc(Br)o1)c1[nH]c2ccc(Br)cc2c1-c1ccccc1
GI50 (786-0 renal): 397 nM
TGI (786-0 renal): 6150 nM
GI50 (A498 renal): 23600 nM
TGI (A498 renal): > 69600 nM
GI50 (A549 NSCLC): 383 nM
TGI (A549 NSCLC): 28700 nM
GI50 (ACHN renal): 504 nM
TGI (ACHN renal): 40100 nM
GI50 (BT-549 breast): 379 nM
TGI (BT-549 breast): 2130 nM
GI50 (CAKI-1 renal): 424 nM
TGI (CAKI-1 renal): 24200 nM
GI50 (CCRF-CEM leukemia): 311 nM
TGI (CCRF-CEM leukemia): 17900 nM
GI50 (COLO 205 colon): 227 nM
TGI (COLO 205 colon): 482 nM
GI50 (DU-145 prostate): 391 nM
TGI (DU-145 prostate): 14700 nM
GI50 (EKVX NSCLC): 539 nM
TGI (EKVX NSCLC): 59900 nM
GI50 (HCC-2998 colon): 385 nM
TGI (HCC-2998 colon): 18500 nM
GI50 (HCT-116 colon): 311 nM
TGI (HCT-116 colon): 4210 nM
GI50 (HCT-15 colon): 353 nM
TGI (HCT-15 colon): 23900 nM
GI50 (HL-60(TB) leukemia): 235 nM
TGI (HL-60(TB) leukemia): 690 nM
GI50 (HOP-62 NSCLC): 565 nM
TGI (HOP-62 NSCLC): 27400 nM
GI50 (HOP-92 NSCLC): 1140 nM
TGI (HOP-92 NSCLC): 32700 nM
GI50 (HS 578T breast): 323 nM
TGI (HS 578T breast): 12800 nM
GI50 (HT29 colon): 298 nM
TGI (HT29 colon): 2980 nM
GI50 (IGROV1 ovarian): 421 nM
TGI (IGROV1 ovarian): > 46700 nM
GI50 (K-562 leukemia): 339 nM
TGI (K-562 leukemia): > 44500 nM
GI50 (KM12 colon): 352 nM
TGI (KM12 colon): > 44500 nM
GI50 (LOX IMVI melanoma): 336 nM
TGI (LOX IMVI melanoma): 16300 nM
GI50 (M14 melanoma): 351 nM
TGI (M14 melanoma): 30200 nM
GI50 (MALME-3M melanoma): 480 nM
TGI (MALME-3M melanoma): 47500 nM
GI50 (MCF7 breast): 341 nM
TGI (MCF7 breast): > 100000 nM
GI50 (MDA-MB-231 breast): 352 nM
TGI (MDA-MB-231 breast): 12300 nM
GI50 (MDA-MB-435): 216 nM
TGI (MDA-MB-435): 567 nM
GI50 (MDA-MB-468 breast): 228 nM
TGI (MDA-MB-468 breast): 585 nM
GI50 (MOLT-4 leukemia): 431 nM
TGI (MOLT-4 leukemia): > 38200 nM
GI50 (NCI-H226 lung): 511 nM
TGI (NCI-H226 lung): 6320 nM
GI50 (NCI-H23 lung): 393 nM
TGI (NCI-H23 lung): 29300 nM
GI50 (NCI-H460 lung): 326 nM
TGI (NCI-H460 lung): 10800 nM
GI50 (NCI-H522 lung): 177 nM
TGI (NCI-H522 lung): 549 nM
GI50 (NCI/ADR-RES ovarian): 231 nM
TGI (NCI/ADR-RES ovarian): 583 nM
GI50 (OVCAR-3 ovarian): 415 nM
TGI (OVCAR-3 ovarian): 17100 nM
GI50 (OVCAR-4 ovarian): 5390 nM
TGI (OVCAR-4 ovarian): > 53300 nM
GI50 (OVCAR-5 ovarian): 372 nM
TGI (OVCAR-5 ovarian): 22000 nM
GI50 (OVCAR-8 ovarian): 297 nM
TGI (OVCAR-8 ovarian): 2830 nM
GI50 (PC-3 prostate): 398 nM
TGI (PC-3 prostate): > 53800 nM
GI50 (RPMI-8226 leukemia): 415 nM
TGI (RPMI-8226 leukemia): > 100000 nM
GI50 (RXF 393 renal): 443 nM
TGI (RXF 393 renal): 21400 nM
GI50 (SF-268 CNS): 861 nM
TGI (SF-268 CNS): > 52900 nM
GI50 (SF-295 CNS): 353 nM
TGI (SF-295 CNS): > 38600 nM
GI50 (SF-539 CNS): 226 nM
TGI (SF-539 CNS): 562 nM
GI50 (SK-MEL-2 melanoma): 407 nM
TGI (SK-MEL-2 melanoma): > 100000 nM
GI50 (SK-MEL-28 melanoma): 1120 nM
TGI (SK-MEL-28 melanoma): 46900 nM
GI50 (SK-MEL-5 melanoma): 204 nM
TGI (SK-MEL-5 melanoma): 424 nM
GI50 (SK-OV-3 ovarian): 731 nM
TGI (SK-OV-3 ovarian): > 65400 nM
GI50 (SN12C renal): 377 nM
TGI (SN12C renal): 14200 nM
GI50 (SNB-19 CNS): 455 nM
TGI (SNB-19 CNS): > 81800 nM
GI50 (SNB-75 CNS): 464 nM
TGI (SNB-75 CNS): 22800 nM
GI50 (SR leukemia): 345 nM
TGI (SR leukemia): 22400 nM
GI50 (SW-620 colon): 374 nM
TGI (SW-620 colon): 22900 nM
GI50 (T-47D breast): 4180 nM
TGI (T-47D breast): > 100000 nM
GI50 (TK-10 renal): 5310 nM
TGI (TK-10 renal): > 46500 nM
GI50 (U251 CNS): 337 nM
TGI (U251 CNS): 16900 nM
GI50 (UACC-257 melanoma): 2690 nM
TGI (UACC-257 melanoma): > 100000 nM
GI50 (UACC-62 melanoma): 395 nM
TGI (UACC-62 melanoma): > 76500 nM
GI50 (UO-31 renal): 679 nM
TGI (UO-31 renal): 28800 nM
